Test results reported in US7629310B2, “RhoB as a suppressor of cancer cell growth, cell transformation, and metastasis” (University of South Florida, priority 2000, dated 2009).

How the values were obtained:
PANC-1 cells = assay: Invasion through […]-coated transfilters, PANC-1 cells; assay type: cell-based, human; conditions: PANC-1 cells (FIG. 9B)
Description: HRas/3T3 cells (FIG. 9A) and PANC-1 cells (FIG. 9B) were transiently transfected with pcDNA3 vector control, H-Ras61L, CA-Akt, or WT-Akt in the presence or absence of RhoA, RhoB, or pcDNA3 for 36 hours. The cells were then split and analyzed for their invading capabilities through […]-coated transfilters as described in the Materials and Methods section. PANC-1 and PC3 cells (FIG. 9C) were transiently transfected with pcDNA3, with H-Ras61L in the presence or absence of RhoA, or RhoB for 36 hours. The cells were then serum-starved for another 36 hours; the conditioned medium was collected and 20 μg protein were analyzed for MMP-2 expression by Western Blotting.
Whether RhoB can also antagonize cell invasion was evaluated. To this end, H-Ras/3T3 and PANC-1 cells were similarly transfected as above with various oncogenes along with RhoA or RhoB, then seeded onto […]-coated poly-hydrocarbonate filters mounted in the middle of a Boyden transwell apparatus as described under Methods. […] Furthermore, transfection with CA-Akt or WT-Akt enhanced invasion; and RhoB, not RhoA, inhibited this enhancement of invasion (FIGS. 9A and 9B).

RhoB promoter = RhoB promoter transcriptional activity (luciferase reporter) in NIH3T3 cells; assay type: cell-based
Text: Gene Constructs and RhoB Promoter Transcriptional Activity Assay. Constitutively active H-Ras61L, K-RasV12, N-RasV12, and dominant negative […]-Ras were kind gifts from Dr. Channing Der (University of North Carolina) (Khosravi-Far, R. et al., Mol Cell Biol, 1995, 15:6443-53; Quilliam, L. A. et al., Mol Cell Biol, 1994, 14:1113-21). Wild-type RhoA and RhoB were subcloned into hemaglutinin (HA)-tagged pcDNA3 (INVITROGEN). The orientation and the sequences of these genes were confirmed by DNA sequencing facilities at the H. Lee Moffitt Cancer Center, Tampa, Fla. RhoB promoter construct pGEI was kindly provided by Dr Y. Monden (Banyu Tsukuba Research, Japan) (Nakamura et al., 1996). pCMV-β-galactosidase vector was purchased from INVITROGEN. The plasmid containing CA-, DN-PI3K, Mek and Akt were kindly provided by Dr. Julie Y. Djeu (H. Lee Moffitt Cancer and Research Institute, Tampa, Fla.) (Jiang, K. et al., Blood, 2003, 101:236-44). β-galactosidase activity and luciferase assay kits were purchased from PROMEGA Corporation, Madison, Wis. The serum response element (SRE) reporter was provided by Dr. Richard Jove, H. Lee Moffitt Cancer and Research Institute, Tampa, Fla. (Turkson, J. et al., Mol Cell Biol, 1999, 19:7519-28). […] Richard Jove, Oncology program, H. Lee Moffitt Cancer and Research Institute, Tampa, Fla. (Turkson, J. et al., Mol Cell Biol, 1999, 19:7519-28). […] (Luetteke, N. C. et al., Genes Dev, 1994, 8:399-413). DNA transfection was performed with the standard lipofectamine protocol (INVITROGEN). […] After transfection the cells were grown for another 36-48 h. Cells were then washed twice with PBS and lyzed in Promega Passive Lysis Buffer. Aliquots of the lysates were then used to measure the luciferase and β-galactosidase activities. The luciferase values were first divided by β-galactosidase values. The RhoB promoter transcriptional activity was determined by dividing the luciferase/β-Gal values from oncogene-transfected cells by those from pcDNA3-transfected cells. […] All the samples were performed in triplicate and the averages of 3 independent experiments were reported here.

Compound	invasion through MATRIGEL (PANC-1 cells)	induction of RhoB promoter activity (RhoB promoter; NIH3T3, 5-FU 2.0 μM 12 hours (FIG. 6A))	induction of RhoB promoter activity (RhoB promoter; NIH3T3, 5-FU 2 μM for 12 hours, absence of oncogenes (FIG. 2A))	induction of RhoB promoter activity (RhoB promoter; NIH3T3, 5-FU 2 μM for 12 hours, in the presence of H-Ras, N-Ras, and K-Ras (FIG. 2A))
RhoA: closely related family member sharing 86% sequence identity with RhoB; wild-type, in HA-tagged pcDNA3, transfected as control	invaded			
O=c1[nH]cc(F)c(=O)[nH]1 [5-FU, 5-fluorouracil]		2 fold	more than 4 fold	only one fold or less than one fold
